Source: ChEMBL document CHEMBL5143683, “Explorations of novel pyridine-pyrimidine hybrid phosphonate derivatives as aurora kinase inhibitors” (Bioorg Med Chem Lett, 2022)
Active and inactive are the calls of the source. No cut-off for these calls is given here.

Assays:
HeLa [1] = test: Anticancer activity against human HeLa cells assessed as reduction in cell viability measured after 24 hrs by MTT assay; type: functional, cell-based
A549 = test: Anticancer activity against human A549 cells assessed as reduction in cell viability measured after 24 hrs by MTT assay; type: functional, cell-based; settings: A549, 24 h
MCF7 = test: Anticancer activity against human MCF7 cells assessed as reduction in cell viability measured after 24 hrs by MTT assay; type: functional, cell-based; settings: MCF7, 24 h
HepG2 [2] = test: Anticancer activity against human HepG2 cells assessed as reduction in cell viability measured after 24 hrs by MTT assay; type: functional, cell-based; settings: HepG2, 24 h
HL-60 = test: Anticancer activity against human HL-60 cells assessed as reduction in cell viability measured after 24 hrs by MTT assay; type: functional, cell-based; settings: HL-60, 24 h
Aurora kinase B = Aurora kinase B (Homo sapiens, UniProt Q96GD4); test: Inhibition of Aurora B (unknown origin) using kemptide acetate as substrate measured after 30 mins by kinase-glo luminescence assay
Aurora kinase B, sequence (Q96GD4 whole entry): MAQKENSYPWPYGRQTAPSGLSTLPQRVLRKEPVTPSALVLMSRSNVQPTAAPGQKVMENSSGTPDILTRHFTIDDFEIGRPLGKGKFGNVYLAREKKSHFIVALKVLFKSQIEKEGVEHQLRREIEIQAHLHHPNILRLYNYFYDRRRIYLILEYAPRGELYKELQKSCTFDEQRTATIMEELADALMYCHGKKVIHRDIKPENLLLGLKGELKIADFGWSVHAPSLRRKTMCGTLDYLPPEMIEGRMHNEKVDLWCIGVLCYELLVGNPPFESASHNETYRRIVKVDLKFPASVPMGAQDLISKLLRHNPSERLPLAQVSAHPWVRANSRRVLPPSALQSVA

Aurora kinase A = target: T1, Aurora kinase A (Homo sapiens, UniProt O14965); test: Inhibition of Aurora A (unknown origin) using kemptide acetate as substrate measured after 30 mins by kinase-glo luminescence assay
T1 sequence (O14965 whole entry): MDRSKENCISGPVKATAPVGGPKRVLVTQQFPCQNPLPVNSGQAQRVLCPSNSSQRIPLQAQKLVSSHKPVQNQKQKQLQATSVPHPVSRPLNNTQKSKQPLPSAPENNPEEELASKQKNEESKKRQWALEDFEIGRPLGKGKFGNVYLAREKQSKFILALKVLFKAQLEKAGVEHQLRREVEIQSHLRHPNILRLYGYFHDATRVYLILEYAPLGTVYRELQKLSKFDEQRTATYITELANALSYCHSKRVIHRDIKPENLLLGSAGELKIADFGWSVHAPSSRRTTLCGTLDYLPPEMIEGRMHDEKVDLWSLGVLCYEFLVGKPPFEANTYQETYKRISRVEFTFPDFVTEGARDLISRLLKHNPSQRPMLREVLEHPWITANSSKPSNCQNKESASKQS

[3] = Cytotoxicity against human L02 cells assessed as reduction in cell viability measured after 24 hrs by MTT assay; type: toxicity, cell-based
[4] = Selectivity index, ratio of IC50 for human L02 cells to IC50 for human Hep-G2 cells; type: toxicity; settings: L02 cells and Hep-G2 cells, read-out: Ratio IC50
HeLa [5] = test: Induction of morphological changes in human HeLa cells assessed as reduction in number of viable cells at IC50 by inverted microscopy; type: functional, cell-based
HepG2 [6] = test: Induction of morphological changes in human HepG2 cells assessed as cell shrinkage at IC50 by inverted microscopy; type: functional, cell-based
HepG2 [7] = test: Induction of morphological changes in human HepG2 cells assessed as cell detachment at IC50 by inverted microscopy; type: functional, cell-based
HepG2 [8] = test: Induction of morphological changes in human HepG2 cells assessed as […] at IC50 by inverted microscopy; type: functional, cell-based
HepG2 [9] = test: Induction of morphological changes in human HepG2 cells assessed as reduction in number of viable cells at IC50 by inverted microscopy; type: functional, cell-based
HeLa [10] = test: Induction of morphological changes in human HeLa cells assessed as cell shrinkage at IC50 by inverted microscopy; type: functional, cell-based
HeLa [11] = test: Induction of morphological changes in human HeLa cells assessed as […] at IC50 by inverted microscopy; type: functional, cell-based
HeLa [12] = test: Induction of morphological changes in human HeLa cells assessed as cell detachment at IC50 by inverted microscopy; type: functional, cell-based

IC50 (HeLa [1]) [µM] | IC50 (A549) [µM] | IC50 (MCF7) [µM] | IC50 (HepG2 [2]) [µM] | IC50 (HL-60) [µM] | IC50 (Aurora kinase B) [µM] | IC50 (Aurora kinase A) [µM] | Structure (SMILES) | IC50 at 24 h [3] [µM] | selectivity ratio [4] | Activity (HeLa [5]) | Activity (HepG2 [6]) | Activity (HepG2 [7]) | Activity (HepG2 [8]) | Activity (HepG2 [9]) | Activity (HeLa [10]) | Activity (HeLa [11]) | Activity (HeLa [12])
8.94 | 18.2 | 4.66 | 19.9 | 4.92 |  |  | CCOP(=O)(OCC)C(Nc1ccc(C)c(Nc2nccc(-c3cccnc3)n2)c1)c1c[nH]c2ccccc12 (stereo not given) |  |  |  |  |  |  |  |  |  | 
12 | 24 | 6.09 | 24.8 | 7.19 |  |  | CCOP(=O)(OCC)C(Nc1ccc(C)c(Nc2nccc(-c3cccnc3)n2)c1)c1ccc(Cl)cc1 (stereo not given) |  |  |  |  |  |  |  |  |  | 
12.3 | 24.1 | 6.11 | 24.9 | 7.23 |  |  | CCOP(=O)(OCC)C(Nc1ccc(C)c(Nc2nccc(-c3cccnc3)n2)c1)c1ccc(F)cc1 (stereo not given) |  |  |  |  |  |  |  |  |  | 
10.2 | 21.4 | 5.32 | 21.5 | 6.39 |  |  | CCOP(=O)(OCC)C(Nc1ccc(C)c(Nc2nccc(-c3cccnc3)n2)c1)c1ccc(N)cc1 (stereo not given) |  |  |  |  |  |  |  |  |  | 
6.88 | 15.1 | 2.36 | 18.6 | 3.01 | 0.012 | 0.015 | CCOP(=O)(OCC)C(Nc1ccc(C)c(Nc2nccc(-c3cccnc3)n2)c1)c1ccn[nH]1 (stereo not given) | 83.2 | 5.5 |  |  |  |  |  |  |  | 
7.16 | 15.8 | 3.36 | 18.9 | 3.78 |  |  | CCOP(=O)(OCC)C(Nc1ccc(C)c(Nc2nccc(-c3cccnc3)n2)c1)c1ccco1 (stereo not given) |  |  |  |  |  |  |  |  |  | 
21.1 | 32.6 | 6.86 | 34 | 8.18 |  |  | CCOP(=O)(OCC)C(Nc1ccc(C)c(Nc2nccc(-c3cccnc3)n2)c1)N1CCCCC1 (stereo not given) |  |  |  |  |  |  |  |  |  | 
32.1 | 40.2 | 8.88 | 42.1 | 9.02 |  |  | CCOP(=O)(OCC)C(Nc1ccc(C)c(Nc2nccc(-c3cccnc3)n2)c1)c1ccccc1 (stereo not given) |  |  |  |  |  |  |  |  |  | 
10.4 | 21.6 | 5.67 | 21.6 | 5.98 |  |  | CCOP(=O)(OCC)C(Nc1ccc(C)c(Nc2nccc(-c3cccnc3)n2)c1)c1ccc(O)cc1 (stereo not given) |  |  |  |  |  |  |  |  |  | 
20.3 | 29.2 | 6.82 | 30.5 | 7.65 |  |  | CCOP(=O)(OCC)C(Nc1ccc(C)c(Nc2nccc(-c3cccnc3)n2)c1)N1CCOCC1 (stereo not given) |  |  |  |  |  |  |  |  |  | 
12.9 | 25 | 7.07 | 25 | 8.24 |  |  | CCOP(=O)(OCC)C(Nc1ccc(C)c(Nc2nccc(-c3cccnc3)n2)c1)c1ccc(Cl)c(Cl)c1 (stereo not given) |  |  |  |  |  |  |  |  |  | 
10.6 | 22 | 5.96 | 21.9 | 6.75 |  |  | CCOP(=O)(OCC)C(Nc1ccc(C)c(Nc2nccc(-c3cccnc3)n2)c1)c1ccc(C)cc1 (stereo not given) |  |  |  |  |  |  |  |  |  | 
6.02 | 13.8 | 1.55 | 18 | 2.32 | 0.015 | 0.033 | CCOP(=O)(OCC)C(Nc1ccc(C)c(Nc2nccc(-c3cccnc3)n2)c1)c1scnc1C (stereo not given) | 74.9 | 5.5 |  |  |  |  |  |  |  | 
5.81 | 13.6 | 1.59 | 17.5 | 2.11 | 0.022 | 0.042 | CCOP(=O)(OCC)C(Nc1ccc(C)c(Nc2nccc(-c3cccnc3)n2)c1)c1ccc[nH]1 (stereo not given) | 95.3 | 7 | Active | Active | Active | Active | Active | Active | Active | Active
6.24 | 15.1 | 1.02 | 18 | 1.88 |  |  | Cc1cc(Nc2cc(N3CCN(C)CC3)nc(Sc3ccc(NC(=O)C4CC4)cc3)n2)n[nH]1 [TOZASERTIB] |  |  |  |  |  |  |  |  |  | 
18.1 | 28.1 | 6.38 | 28.5 | 7.22 |  |  | CCOP(=O)(OCC)C(Nc1ccc(C)c(Nc2nccc(-c3cccnc3)n2)c1)c1ccncc1 (stereo not given) |  |  |  |  |  |  |  |  |  | 
7.01 | 15.7 | 2.46 | 18.8 | 2.99 |  |  | CCOP(=O)(OCC)C(Nc1ccc(C)c(Nc2nccc(-c3cccnc3)n2)c1)c1ccsc1 (stereo not given) |  |  |  |  |  |  |  |  |  | 
13 | 24.3 | 6.42 | 24.9 | 7.87 |  |  | CCOP(=O)(OCC)C(Nc1ccc(C)c(Nc2nccc(-c3cccnc3)n2)c1)c1ccc(OC)cc1 (stereo not given) |  |  |  |  |  |  |  |  |  | 
